This is an account of results in a melting point compilation (Tetko et al.; mined from patent text by program, amines drawn as free bases though some values may be those of a salt).

For orientation: melting point means the temperature, or range, at which the solid turns liquid.

The structures appear in SMILES notation.

With `CC(=O)N1CCC(C(=O)N(CCCN2CC3CN(C(=O)c4cccnc4N4CCC4)CC3C2)c2ccc(C)c(Cl)c2)CC1` (configuration not stated), the melting point was in the range of 72.9 to 74 °C. As for `Fc1cc(Br)ccc1CSc1nc2cnccc2[nH]1`, the melting point was in the range of 204 to 206 °C.

As to `Clc1cc(C2CO2)cc(OCc2ccccc2)c1OCc1ccccc1` (configuration not stated), the melting point lay within 154 to 159 °C. On to `C=CCOC(=O)NCC(=N)NO`, for which the melting point lay within 91 to 92 °C. In the case of `COC(=O)[C@@H]1C[C@H](OC(=O)C(C)C)C(=O)[C@H]2[C@@]1(C)CC[C@H]1C(=O)O[C@H](c3ccoc3)C[C@]21C` it was 155 to 157 °C; in that of `COC(=O)COc1ccc2c(c1)sc1cc3ccccc3c(-c3ccc(O)cc3)c12`, 229 to 231 °C; in that of `Cc1ccccc1CC(C)(C)NC(C)(O)c1ccc(O)c(O)c1C` (configuration not stated), 166 to 169 °C. `CCOC(=O)c1cnc(C)nc1NCc1ccc(-c2ccccc2-c2nnn[nH]2)cc1` showed a melting point of 121 to 123 °C. On to `NS(=O)(=O)c1ccc(-c2c(-c3ccccc3)noc2COCCS(=O)(=O)CCO)cc1`, for which the melting point turned out to be 81 °C.

In turn, `C=CCNc1nc(NCC(F)(F)F)nc2ccc([N+](=O)[O-])cc12` gave a melting point of 221 to 222 °C.

`N=C(Nc1ccc2c(C3CN4CCC3CC4)c[nH]c2c1)c1cccs1` (configuration not stated) gave a melting point of 144 to 146 °C. `CCCCCCCCNC(=O)CSc1nc(Cl)cc(Nc2cccc(C)c2C)n1` gave a melting point of 144 to 146 °C. Then `FC(F)c1ccccc1C=C1c2ccccc2CCc2ccccc21`, with 13.3 °C.

Compound `COC(=O)CC[C@H](NC(=O)c1ccc(C#Cn2cnc3nc(NC(=O)C(C)(C)C)cc-3c2O)cc1)C(=O)OC` displayed a melting point of 280 to 285 °C. Compound `CCOc1cc2c(Cl)c(C#N)cnc2cc1F` yielded a melting point of 165 to 166 °C.

Regarding `CCCCNc1ccc(S(=O)(=O)N2CC(N(Cc3ccccc3)C(=O)OC(C)(C)C)C2)cc1`, the melting point lay in the range of 115 to 116 °C. In the case of `CCC(=CC(CNC(=O)c1ccncn1)=NO)C(C)[N+](=O)[O-]` (configuration not stated) it was 150 to 152 °C; in that of `Cc1ccc(C)c(CN(c2ncnc3c2cnn3C2CCCO2)C2CCCC2)c1` (configuration not stated), 173 to 174 °C; in that of `Cc1cc(C)c(Nc2nc(C)ccc2S(=O)(=O)c2ccc(-c3ccccc3)cc2)c(C)c1`, 140 to 141 °C. Then `C=CCN(CC=C)C(=O)n1cnc(S(=O)(=O)CC)n1`, with 39 to 42 °C; and `Cc1c(C=O)c2c(c(C)c1NC(=O)CC(C)(C)C)CC(C)(C)O2`, with 180 to 181 °C. Then `CN[C@@H](C)[C@@H]1CCN(c2c(F)cc3c(=O)[nH]c(=O)n(C4CC4)c3c2C)C1`, with more than 250 °C; and `Cc1cc(C)c2c(c1)nc(NC1CCN(CCO)CC1)n2Cc1nc(C)ccc1O`, with 143 °C; and `CC(C)C(Br)=C(c1ccccc1)c1ccccc1`, with 112 to 114 °C.

`NC(=O)c1ccc(NC2CCCN(Cc3ccccc3)CC2)c(Cl)c1` (configuration not stated) registered a melting point of 174 to 175 °C.

In the case of `CC(C)(O)c1cccc2ccccc12`, the melting point was in the range of 81 to 86 °C. In the case of `CNc1nc(-c2ccc(F)cc2)n(-c2ccc(SC)cc2)c(=O)c1C#N`, the melting point fell in the range of 219 to 222 °C. Then `CCn1cc(C(=O)O)c(=O)c2c(F)c(F)c(N3CCNC(C)C3)c(F)c21` (configuration not stated), with 220 to 222 °C.

Regarding `COc1ccc2c(c1)CC(Nc1ccc(O)cc1)C2` (configuration not stated), the melting point lay in the range of 144 to 146 °C. The compound `COC(=O)CCCN(C(=O)C(C)N(C(C)=O)c1ccc(OC)cc1)c1ccc(OC)cc1` (configuration not stated) returned a melting point of 111 to 113 °C. `CC(=O)C(=Cc1cc(Cl)cc(Cl)c1)C(C)=O` registered a melting point of 85 to 87 °C.

For the compound `CC1CCNc2nc3ccc([N+](=O)[O-])cc3n21` (configuration not stated), the melting point was in the range of 172 to 178 °C. Then `Cc1cc(N)c(F)cc1Br`, with 57 °C; and `CC(=O)N(C)Cc1ccc(CCn2cnc3cc(-c4ccc(Cl)cc4)sc3c2=O)cc1`, with 176 to 178 °C. Compound `CCNc1nc(Cl)c(C#N)c(NC(C)C)n1` gave a melting point of 160 to 165 °C.

For the compound `O=C(O)CCCc1ccc(S(=O)(=O)Nc2ccccc2)cn1`, the melting point was in the range of 158 to 159 °C. `O=[N+]([O-])c1ccc(OC2(c3ccccc3)CCNCC2)cc1` showed a melting point of 137 to 138 °C. Compound `COc1cc2c(c(OC)c1)C1CCC3(C)C(OC(C)=O)CCC3C1CC2` (configuration not stated) came in with a melting point of 131 to 134 °C. `CSc1ncc(C(=N)NO)cc1Cl` returned a melting point of 139 to 143 °C.

`O=C1c2ccccc2C(=O)c2oc(-c3ccccc3)nc21` showed a melting point of more than 260 °C. Then `COCCN1CCN(CC2CCN(c3ccc(Cl)cc3)C2=O)CC1` (configuration not stated), with 103 to 105 °C. Consider `O=C(Cc1ccc(O)cc1)NC1CCN(Cc2ccc(Cl)c(Cl)c2)CC1`, for which the melting point fell in the range of 72 to 97 °C. The compound `CCCCCCc1cc2c(cc1C(=O)Oc1ccc(C(=O)O)cn1)CCCCC2(C)C` showed a melting point of 119 to 120 °C. Then `CC(C)CCN1N=C(c2ccc(F)cc2)c2cc(F)ccc2CS1(=O)=O`, with 130 to 133 °C; and `CC1CC2C3CCC4CC(O)CCC4(C)C3C(=O)CC2(C)C1C1(C)OCCO1` (configuration not stated), with 122 to 124 °C. In turn, `COc1cccc(Oc2ccc(C(=O)N(C(C)C)C3CCCCC3)cc2)c1` gave a melting point of 101 °C. Consider `CC(C)(C)C(=O)Nc1ccc(Cl)cc1C1(O)CCN(C/C=C/c2ccc(Cl)cc2)CC1`, for which the melting point lay within 177 to 179 °C.

In the case of `COc1cccc(S(=O)(=O)N2CCc3cc(OCc4ccccc4)c(OC)cc3C2)c1`, the melting point was 124 to 125 °C. In turn, `O=S(=O)(CCN1CC(c2ccccc2)C(c2ccc(Cl)cc2)=N1)c1cccc(C(F)(F)F)c1` (configuration not stated) came in with a melting point of 118 to 119 °C.

Regarding `CC(=O)N(C(C)=O)c1ncc(C#Cc2cnn3c(C(F)(F)F)cc(-c4ccc(C(F)(F)F)cc4)nc23)cn1`, the melting point lay in the range of 253 to 254 °C. Then `CC1(C)CC2(CC(C)(C)N1c1nc(Cl)nc(N3CCOCC3)n1)OCCO2`, with 154 to 156 °C; and `C=CCC(CCC=NO)C1=C(O)CC(c2ccc(N)cc2)CC1=O` (configuration not stated), with 92 °C.

With `O=[N+]([O-])c1ccc2c(c1)CCC(CO)O2` (configuration not stated), the melting point worked out at 96.5 °C. Then `CC(=O)NCC1CCC(Nc2nc3c(s2)CCCc2ccc(F)cc2-3)CC1` (configuration not stated), with 88 to 91 °C; and `CCOCCN(CCOCC)NC(=O)NS(=O)(=O)c1ccc(Cl)cc1`, with 84.5 to 85.5 °C.

`Cc1ccccc1-c1nc(NCCN(C)C)ncc1N(C)C(=O)C(C)(C)c1cc(C(F)(F)F)cc(C(F)(F)F)c1` displayed a melting point of 143 to 144 °C. `c1ccc2c(Nc3ccc4c(c3)CCC4)ncc(Sc3ccncc3)c2c1`: the melting point lay in the range of 100 to 103 °C. On to `CC(=O)CCCCCCC(CC(C)C(O)C(N)CO)c1cccs1` (configuration not stated), for which the melting point is 96 to 99 °C. Turning to `c1cc2c(cc1-c1nnc(SCC3CC3)o1)CCO2`, the melting point was 57 to 58 °C. Compound `CCOC(=O)c1c(Cn2cncn2)nc2cc(OC)c(O)cc2c1-c1ccc(O)c(O)c1` displayed a melting point of 264 to 266 °C. In the case of `NCCCN(CC1COc2ncccc2O1)c1ccc(Cl)nn1` (configuration not stated) it was 101 °C; in that of `COc1ccc([C@H]2Cc3c(cccc3C(F)(F)F)NC(=O)[C@H]2OC(=O)c2ccccc2C(=O)O)cc1` (relative stereo), 161 to 162 °C; in that of `CCNc1nc(Nc2ccccc2)ncc1C=CC#N`, 244 to 246 °C. Then `CCN(CC)C(=O)c1cc2ccccc2c(-c2cccc(Cl)c2)n1`, with 116 °C. Then `CCCCCCCCCCN1C(=O)C2C3CCC(O3)C2C1=O` (configuration not stated), with 30 to 31 °C; and `NNC(=O)c1ncccn1`, with 173 to 175 °C; and `CCn1c(COC(=O)NC(=O)C(C)(C)C)nc(C(C)C)c1Sc1cc(Cl)cc(Cl)c1`, with 157 to 159 °C. Regarding `Clc1cccc(CSc2nnc(-c3ccc4occc4c3)o2)c1`, the melting point is 125 to 126 °C. In the case of `NS(=O)(=O)c1ccc(-c2cccc(-c3nc(-c4ccc(C(F)(F)F)nc4)cc(C(F)(F)F)n3)c2)s1` it was 250 °C. Then `Cc1ccc(C2=NN=C(c3ccccc3Cl)N(C)N2)cc1`, with 152 to 154 °C; and `CCCCCCCCCCCCCCCCCCOc1cc(NC(C)=O)cc(N(CC(=O)OCc2ccccc2)CC(=O)OCc2ccccc2)c1`, with 89 to 90 °C; and `Cc1sc(C(=O)OCc2ccccc2)cc1NC(=O)NCc1ccccc1`, with 208 to 209 °C.

In turn, `COc1ccc2sc(C(N)=O)c(SC(C)C)c2c1` displayed a melting point of 143 to 144 °C.

`COc1ccc(CC(=O)O)cc1OCCCc1cn(-c2ccc(C(F)(F)F)cn2)nc1C1CCCCC1` displayed a melting point of 117 to 118 °C. With `O=C(c1ccc2c(c1)OCCOCCOCCOCCOCCO2)c1ccccn1`, the melting point was 78 to 80 °C. Then `CC(C)Oc1cccc(CC(=O)N2CCC(CCN3CCC(C(=O)c4nc5ccccc5n4Cc4ccc(F)cc4)CC3)(c3ccc4c(c3)OCO4)C2)c1` (configuration not stated), with 73 to 76 °C; and `CCOC(=O)c1c(S(N)=O)c2ccccc2n1CC` (configuration not stated), with 78 to 80 °C; and `COc1ccc2c(C(=S)N(C)CC(=O)O)cccc2c1SC(F)(F)F`, with 168 to 169 °C. In turn, `O=C1CCCCC1(CCCCCOc1ccccc1)c1ccccc1` (configuration not stated) showed a melting point of 69 to 72 °C. Consider `COC(=O)C1=C(C)NC(C#N)=C(C(=O)OC)C1c1cccc2c(=O)c(C)c(-c3ccccc3)oc12` (configuration not stated), for which the melting point is 250 °C. Take `CC(=O)Oc1ccc(C(=O)c2ccc(OC(C)=O)cc2)cc1`: the melting point is 120 to 122 °C.

On to `CC(C)C[C@H](NC(=O)OCc1ccccc1)C(=O)N[C@@H](Cc1ccccc1)C(=O)COCc1ccco1`, for which the melting point was 94 to 95 °C. Then `CN1CCN(c2nc(C(F)(F)F)cs2)CC1`, with 62 °C. In the case of `NC(CO)(CO)C(=O)O` it was 109 to 112 °C. For `CC(=O)Nc1cccc2c1C(=O)c1c-2n[nH]c1C(C)C`, the melting point is more than 250 °C. As to `CCOC(=O)c1ccc2[nH]cc(CCCI)c2c1`, the melting point worked out at 81 °C. `O=C(Oc1cc(F)ccc1[N+](=O)[O-])c1cc2ccccc2oc1=O` showed a melting point of 219 to 223 °C.
